BindingDB's records for doi:10.1021/jm990309x (University of New Mexico, 1999)

Each molecule was assayed against Bile salt-activated lipase (Sus scrofa) (assay: Inhibition of the Pancreatic Cholesterol Esterase from porcine).

Structure (SMILES)	Ki [nM]
O=c1oc(Cl)ccc1CCC1CCCCC1 [6-Chloro-3-(2-cyclohexyl-ethyl)-pyran-2-one]	25
O=c1oc(Cl)ccc1CCCC1CCCCC1 [6-Chloro-3-(3-cyclohexyl-propyl)-pyran-2-one]	60
O=c1oc(Cl)ccc1CC1CCCCC1 [6-Chloro-3-cyclohexylmethyl-pyran-2-one]	2200
